Patent publication US9505768B2, “Compositions and methods for modulating TLR4” (The Regents of the University of California, priority 2012, dated 2016)
“Also recorded” adds a separate entry of the source. Read-outs that look alike come from different tables or passages of the source.

Columns and labels:
[1] = system: mouse bone marrow derived dendritic cells (mBMDC); assay: IL-6 induction in mouse bone marrow derived dendritic cells (ELISA); type: cell-based; conditions: relative to Cmpd 1 / within series
Description: (§1) The above assays were utilized to compare the derivatives of the lead pyrimidoindole for their ability to activate mouse and human TLR4. […] Each cytokine induction curve was first converted to a percent activity curve, and then the AUC of the percent activity curve was calculated. The process of converting to a percent activity curve allowed subtracting background and adjusting for plate-to-plate variation.
(§2) BMDC were prepared from C57BL/6 mice as described. See e.g., Wu, C. […] BMDC (10^5 cells per well) were plated in 96-well plates in 200 μL of complete RPMI1640 supplemented with 10% fetal calf serum (FCS; Sigma Aldrich), 100 U/mL penicillin, and 100 μg/mL streptomycin (Invitrogen). […] After 18 h incubation, the cell culture supernatants were collected. LPS (purified LPS, Invivogen, San Diego, Calif.) or MPLA (1 μg/mL synthetic MPLA, Invivogen, San Diego, Calif.) were used as positive controls. […] The AUC was calculated from BMDC dose-response curves using Prism 5 (GraphPad, San Diego). Each cytokine induction curve was first converted to a percent activity curve, and then the AUC of the percent activity curve was calculated. The process of converting to a percent activity curve allowed subtracting background and adjusting for plate-to-plate variation.

mouse TLR4 = target: T1, mouse TLR4 (Mus musculus, UniProt Q9JHF9+Q9QUK6); assay: Murine TLR4 HEK Blue NFκB/SEAP reporter assay; type: cell-based; conditions: mTLR4 HEK transfectoma, 312 nM to 10 μM; Cmpd 1 set at 100
T1 construct: host or cells: HEK293 (HEK Blue) cells with NFκB/SEAP reporter
T1 sequence (Q9QUK6 26-835): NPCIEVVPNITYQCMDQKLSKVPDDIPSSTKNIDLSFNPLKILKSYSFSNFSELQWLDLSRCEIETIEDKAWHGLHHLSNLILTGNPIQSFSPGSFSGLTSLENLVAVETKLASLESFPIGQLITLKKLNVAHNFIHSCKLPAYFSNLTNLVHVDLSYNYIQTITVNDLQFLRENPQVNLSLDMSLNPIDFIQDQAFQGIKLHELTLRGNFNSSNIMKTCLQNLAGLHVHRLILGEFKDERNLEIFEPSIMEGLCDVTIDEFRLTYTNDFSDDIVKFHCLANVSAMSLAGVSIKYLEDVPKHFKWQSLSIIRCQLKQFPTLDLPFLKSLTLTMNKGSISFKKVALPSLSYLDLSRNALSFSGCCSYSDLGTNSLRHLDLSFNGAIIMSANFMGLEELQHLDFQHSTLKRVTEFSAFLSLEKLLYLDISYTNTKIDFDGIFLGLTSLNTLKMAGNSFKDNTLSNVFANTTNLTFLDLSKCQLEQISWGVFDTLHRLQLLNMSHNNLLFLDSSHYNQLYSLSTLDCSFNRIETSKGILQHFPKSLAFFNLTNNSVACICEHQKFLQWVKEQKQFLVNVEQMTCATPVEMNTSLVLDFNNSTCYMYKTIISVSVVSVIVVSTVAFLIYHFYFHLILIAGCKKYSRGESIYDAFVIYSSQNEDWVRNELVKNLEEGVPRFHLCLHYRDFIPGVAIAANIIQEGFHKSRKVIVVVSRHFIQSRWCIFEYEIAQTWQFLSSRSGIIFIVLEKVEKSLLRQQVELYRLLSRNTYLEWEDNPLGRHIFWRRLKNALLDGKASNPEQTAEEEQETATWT
T1 sequence (Q9JHF9 19-160): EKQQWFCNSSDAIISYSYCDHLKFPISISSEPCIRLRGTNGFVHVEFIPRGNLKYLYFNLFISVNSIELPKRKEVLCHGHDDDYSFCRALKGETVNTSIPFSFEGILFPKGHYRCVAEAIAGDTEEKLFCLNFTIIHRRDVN
Description: as §1
(§3) The culture supernatants were harvested after a 20-24 h incubation period. SEAP activity in the supernatants was determined by a colorimetric assay, using either the SEAPorter Assay Kit (Imgenex), with absorbance read at 405 nm, or QuantiBlue (Invivogen), with absorbance read at 630 nm.

[2] = system: mouse bone marrow derived dendritic cells (mBMDC); assay: IP-10 induction in mBMDC (ELISA), surrogate marker of type I IFN; type: cell-based; conditions: relative to Cmpd 1
Description: In addition to the production of inflammatory cytokines (IL-6, IL-12, TNFα, etc.) mediated by NFκB activation, TLR4 signaling can result in the production of type I interferons, a feature that is not only important for activation of dendritic cells leading to good adjuvant activity, but would also be important for rapid defense against a variety of pathogens, particularly viruses. […] To determine the relative ability of all compounds to induce the production of type 1 IFN, each was evaluated in mouse bone marrow derived dendritic cells as shown in Tables 1-3.
as §2
In addition, the levels of IP-10, a surrogate marker of type I IFN, in the supernatants were determined by ELISA (R&D Systems, Minneapolis, Minn.).

human TLR4 = target: T2, human TLR4 (Homo sapiens, UniProt O00206+Q9Y6Y9); assay: Human TLR4 HEK Blue NFκB/SEAP reporter assay; type: cell-based; conditions: hTLR4 HEK293 transfectoma; all compounds tested at 10 μM; Cmpd 1 set at 100
T2 construct: host or cells: HEK293 (HEK Blue) cells with NFκB/SEAP reporter
Description: as §1, §3

C57BL/6 mice [3] = assay: Protection from LPS/galactosamine-induced lethal liver injury; type: in vivo, mouse; conditions: for Survival: i.p. pretreatment (500 nmol Cmpd, 40 μg MPLA), next day LPS 0.2 μg + galactosamine 12 mg per animal, survivors/treated
Description: FIGS. 11A-11B depict that administration of Cmpd 42 and Cmpd 33 protects hosts from LPS-induced lethal liver injury. FIG. 11A: Schematic showing that C57BL/6 mice were intraperitoneously injected with 500 nmol Cmpd. 42 (n=11) or Cmpd 33 (n=11). 40 μg MPLA (n=9) and vehicle (n=9) were used as positive and negative controls, respectively. Next day, mice were challenged with LPS (0.2 μg/animal) and galactosamine (12 mg/animal). FIG. 11B: Histogram showing results of sera collected 1.5 h post challenge and measured for TNFα. *:p<0.05 compared to vehicle treated mice.
Lipopolysaccharide (LPS), a TLR4 ligand, causes severe lethal liver injury when administered with galactosamine. Pretreatment of mice with MPLA is known to improve the survival in this model. To study whether Cmpd 42 and Cmpd 33 are able to act as immunomodulatory agents similar to MPLA, the mice were treated with Cmpd 42 or Cmpd 33 and challenged with LPS/galatosamine the next day, as depicted in FIG. 11A. Over 80% of Cmpd 42 and 100% of Cmpd 33-treated mice survived.

C57BL/6 mice [4] = system: C57BL/6 mice
[5] = system: mouse bone marrow derived dendritic cells (mBMDC); assay: IL-6 induction in mouse bone marrow derived dendritic cells (ELISA); type: cell-based; conditions: 5 μM overnight, vs C57BL/6 WT
[6] = system: mouse bone marrow derived dendritic cells (mBMDC); assay: IP-10 induction in mBMDC (ELISA), surrogate marker of type I IFN; type: cell-based; conditions: 5 μM overnight, vs C57BL/6 WT

T2 sequence (O00206 24-839): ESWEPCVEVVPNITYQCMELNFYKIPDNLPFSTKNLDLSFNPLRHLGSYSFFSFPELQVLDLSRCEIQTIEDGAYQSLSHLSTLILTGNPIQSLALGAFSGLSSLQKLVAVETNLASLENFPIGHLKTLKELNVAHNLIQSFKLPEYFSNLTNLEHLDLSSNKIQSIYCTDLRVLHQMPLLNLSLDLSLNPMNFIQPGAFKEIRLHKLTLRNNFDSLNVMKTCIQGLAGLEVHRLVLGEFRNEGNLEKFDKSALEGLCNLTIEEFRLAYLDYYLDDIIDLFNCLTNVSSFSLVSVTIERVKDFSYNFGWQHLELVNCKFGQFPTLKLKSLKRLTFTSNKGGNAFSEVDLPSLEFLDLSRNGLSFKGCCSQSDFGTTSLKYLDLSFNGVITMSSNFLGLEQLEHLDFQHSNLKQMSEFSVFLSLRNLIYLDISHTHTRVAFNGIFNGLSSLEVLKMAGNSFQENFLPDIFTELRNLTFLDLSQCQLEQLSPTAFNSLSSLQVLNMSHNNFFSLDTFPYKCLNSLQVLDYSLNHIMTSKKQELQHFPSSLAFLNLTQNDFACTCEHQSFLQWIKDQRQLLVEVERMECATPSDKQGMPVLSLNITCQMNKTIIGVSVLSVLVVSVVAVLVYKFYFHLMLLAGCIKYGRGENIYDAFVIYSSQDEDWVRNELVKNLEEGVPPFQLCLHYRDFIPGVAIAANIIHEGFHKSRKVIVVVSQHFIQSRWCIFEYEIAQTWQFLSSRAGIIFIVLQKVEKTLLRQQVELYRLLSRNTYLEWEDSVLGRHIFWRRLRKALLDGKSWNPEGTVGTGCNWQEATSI
T2 sequence (Q9Y6Y9 19-160): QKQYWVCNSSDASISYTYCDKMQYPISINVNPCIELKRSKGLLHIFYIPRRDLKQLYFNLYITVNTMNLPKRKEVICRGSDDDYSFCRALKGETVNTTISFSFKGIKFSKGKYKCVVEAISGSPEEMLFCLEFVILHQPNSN

Row | Compound | mouse TLR4, area under curve (AUC) values normalized to Cmpd 1 (mouse TLR4) | human TLR4, values normalized to Cmpd 1 (human TLR4) | IL-6 activity in mBMDC (in words) [1] | IP-10 production in mBMDC (in words) [2] | further results
1 | CC(C)(C)CCNC(=O)CSc1nc2c([nH]c3ccccc32)c(=O)n1-c1ccccc1 [Compound 28, N-(3,3-dimethylbutyl)-2-((4-oxo-3-phenyl-4,5-dihydro-3H-pyrimido[5,4-b]indol-2-yl)thio)acetamide] | 126 | 72 | among the most active of the alkyls; also recorded: high IL-6 | high IP-10 production | –
2 | O=C(CSc1nc2c([nH]c3ccccc32)c(=O)n1-c1ccccc1)NC1CCC1 [Compound 12, N-cyclobutyl-2-((4-oxo-3-phenyl-4,5-dihydro-3H-pyrimido[5,4-b]indol-2-yl)thio)acetamide] | 18 | 32 | diminished IL-6 release | nearly equivalent induction of IP-10 | –
3 | O=C(CSc1nc2c([nH]c3ccccc32)c(=O)n1-c1ccccc1)NC1CCCCCCC1 [Compound 10, N-cyclooctyl-2-((4-oxo-3-phenyl-4,5-dihydro-3H-pyrimido[5,4-b]indol-2-yl)thio)acetamide] | 95 | 64 | the most active; also recorded: high IL-6 | high IP-10 production | –
4 | monophosphoryl lipid A [MPLA, reference compound] | – | – | – | – | Survival (C57BL/6 mice [3]): 8/9; Survival (C57BL/6 mice [4]; i.p. 500 nmol Cmpd 42, MPL 40 μg or LPS 0.2 μg mixed with galactosamine 12 mg, survivors/treated): 0/5; Serum TNFα levels (C57BL/6 mice [4]; with galactosamine 12 mg/animal, up to 15 μmol/animal Cmpd 33, 1 μmol/animal Cmpd 42, 10 μg/animal MPLA): induced detectable TNFα
5 | O=C(CSc1nc2c([nH]c3ccccc32)c(=O)n1-c1ccccc1)NC1CCCCCC1 [Compound 9, N-Cycloheptyl-2-((4-oxo-3-phenyl-4,5-dihydro-3H-pyrimido[5,4-b]indol-2-yl)thio)acetamide] | 99 | 100 | the most active; also recorded: high IL-6 | high IP-10 production | –
6 | O=C(CSc1nc2c([nH]c3ccccc32)c(=O)n1C1CCCCC1)NC1CCCC1 [Compound 41, 2-((3-Cyclohexyl-4-oxo-4,5-dihydro-3H-pyrimido[5,4-b]indol-2-yl)thio)-N-cyclopentylacetamide] | 19 | 33 | partial loss of activity | – | –
7 | O=C(CSc1nc2c([nH]c3ccccc32)c(=O)n1-c1ccccc1)NCC1CCCO1 (stereo not shown) [Compound 33, 2-((4-oxo-3-phenyl-4,5-dihydro-3H-pyrimido[5,4-b]indol-2-yl)thio)-N-((tetrahydrofuran-2-yl)methyl)acetamide] | 21 | 13 | diminished IL-6 release | nearly equivalent induction of IP-10 | IL-6 secretion in MyD88 null dendritic cells [5]: significantly impaired; IP-10 induction in LPS mutant (Trif lps/lps) cells [6]: significantly decreased; serum TNFα (C57BL/6 mice [3]; […] post challenge, compared to vehicle treated mice): significantly lower level; mice survived (C57BL/6 mice [3]; i.p. pretreatment 500 nmol, LPS/galactosamine challenge next day): 100%; Survival (C57BL/6 mice [3]): 11/11; maximum tolerated dose relative to MPLA (C57BL/6 mice [4]; liver injury model with galactosamine): over 100 times
8 | O=C(CSc1nc2c([nH]c3ccccc32)c(=O)n1CCc1ccccc1)NC1CCCCC1 [Compound 40, N-cyclohexyl-2-((4-oxo-3-phenethyl-4,5-dihydro-3H-pyrimido[5,4-b]indol-2-yl)thio)acetamide] | 1 | 1 | total loss of activity | – | –

Now from value to compound, other results behind:

Row | mouse TLR4, area under curve (AUC) values normalized to Cmpd 1 (mouse TLR4) | human TLR4, values normalized to Cmpd 1 (human TLR4) | Compound | IL-6 activity in mBMDC (in words) [1] | IP-10 production in mBMDC (in words) [2] | further results
9 | 17 | 13 | CCCC(C)NC(=O)CSc1nc2c([nH]c3ccccc32)c(=O)n1-c1ccccc1 (stereo not shown) [Compound 30, 2-((4-oxo-3-phenyl-4,5-dihydro-3H-pyrimido[5,4-b]indol-2-yl)thio)-N-(pentan-2-yl)acetamide] | diminished IL-6 release | nearly equivalent induction of IP-10 | –
10 | 29 | 17 | CCC(C)CCNC(=O)CSc1nc2c([nH]c3ccccc32)c(=O)n1-c1ccccc1 (stereo not shown) [Compound 29, N-(3-methylpentyl)-2-((4-oxo-3-phenyl-4,5-dihydro-3H-pyrimido[5,4-b]indol-2-yl)thio)acetamide] | diminished IL-6 release | nearly equivalent induction of IP-10 | –
11 | 6 | 3 | O=C(CSc1nc2c([nH]c3ccccc32)c(=O)n1-c1ccc2ccccc2c1)NC1CCCCC1 [Compound 39, N-cyclohexyl-2-((3-(naphthalen-2-yl)-4-oxo-4,5-dihydro-3H-pyrimido[5,4-b]indol-2-yl)thio)acetamide] | total loss of activity | – | –
12 | 1 | <1 | CN(C(=O)CSc1nc2c3ccccc3n(C)c2c(=O)n1-c1ccccc1)C1CCCCC1 [Compound 43, N-cyclohexyl-N-methyl-2-((5-methyl-4-oxo-3-phenyl-4,5-dihydro-3H-pyrimido[5,4-b]indol-2-yl)thio)acetamide] | total loss of IL-6 activity | – | –
